According to US10907168B2, “Jasmonic acid pathway activator” (MEDICAGO INC., priority 2015, dated 2021):

Columns and labels:
A. tumefaciens VirE1 = test: Real-time RT PCR of VirE1 transcripts in agroinfiltrated leaves; assay type: in vivo, Agrobacterium tumefaciens; details: 1 mM, seven days post-treatment
Procedure: mRNA transcripts for C5-1 and A. tumefaciens virulence proteins VirB1 and VirE1 were assayed by real-time RT PCR using an ABI PRISM 7500 Fast real-time PCR apparatus, system version 2.0.1 (Applied Biosystems, Carlsbad Calif., U.S.A.). Total RNA was extracted from two 1-cm^2 leaf discs collected on the third main stem leaf (Robert et al., 2013) using the Qiagen RNeasy plant mini kit (Qiagen), following the supplier's instructions. RNA samples were treated with DNase I (Roche Diagnostics) to remove contaminant DNA and assessed for quality and quantity using a Nanodrop® ND-1000 spectrophotometer (NanoDrop Technologies, Wilmington Del., USA). First-strand cDNA was synthesized from 500 ng of total RNA using 4 units of Omniscript reverse transcriptase (Qiagen) and 1 μM of oligo-dT (15) nucleotides (Roche). PCR reactions contained 10 μl of Fast SYBR Green PCR Master Mix (Applied Biosystems), 2 μl of cDNA template, and 2.5 μl each of appropriate forward and reverse primers at 625 nM final concentration (Table 1). A no-template mixture control was included in each 96-well plate. Amplification rounds consisted of a 20-s denaturation step at 95° C., followed by 40 two-step cycles of 3 s at 95° C. and 30 s at 60° C. […]

A. tumefaciens = test: Bacterial counts (CFU) in agroinfiltrated leaves; assay type: in vivo, Agrobacterium tumefaciens; details: control and treated leaves; after four or six days post-infiltration
From the text: Two gene vectors were used for the agroinfiltration assays: an engineered pcambia2300 vector encoding the light and heavy chains of C5-1 fused to an N-terminal signal peptide sequence for cellular secretion (see Goulet et al., 2012 for details on gene construct); and the original (“empty”) pcambia2300 binary vector (CAMBIA, Canberra, Australia) as a control for agroinfection. The two binary vectors were electroporated into A. tumefaciens strain LBA4404 and the cultures were maintained in Luria-Bertani (LB) medium supplemented with 50 μg/ml kanamycin and 50 μg/ml rifampicin. For infiltration, bacteria were grown to stable phase at 28° C. to an OD600 of 1.0 and collected by centrifugation at 2,000 g. The bacterial pellets were resuspended in 10 mM 2-[N-morpholino] ethanesulfonic acid] (MES) buffer, pH 5.8, containing 100 μM acetosyringone and 10 mM MgCl2. Leaf infiltration was performed using a needle-less syringe as described earlier (D'Aoust et al., 2009), after mixing the C5-1 antibody (or empty vector) agrobacterial suspension with an equal volume of bacterial suspension carrying a binary vector for the protein silencing suppressor p19 (Voinnet et al., 2003). […] Bacterial loads in leaves were determined by the counting of CFU on LB agar plates coated with bacteria recovered at different moments from the third main stem leaf. […]

[1] = system: cathepsin D/E-like A1 Asp proteases; test: Protease assay in leaf crude extracts, MOCAc substrate; assay type: in vivo, Nicotiana benthamiana; details: seven days post-treatment

CC/C=C\C[C@H]1C(=O)CC[C@@H]1CC(=O)OC [MeJA, methyl jasmonate]
VirE1 transcription versus control leaves (A. tumefaciens VirE1): no positive effect
bacterial counts (A. tumefaciens): less than a million
cathepsin D/E-like activity ([1]; agroinfiltrated leaves): also observed in agroinfiltrated leaves
cathepsin D/E-like activity ([1]; uninfiltrated plants, P<0.001): dose-dependent decrease
